Legend:
[1] = RSV dissolution in different liquid lipophilic excipients; assay type: physicochemical
Source text: Lipophilic excipients must have peculiar features from a physicochemical perspective (i.e., solid at room temperature, chemically inert, high capacity to incorporate drugs, and capable of protecting the latter from physicochemical degradation phenomena) and a biological point of view (i.e., biocompatible, neither carcinogenic or teratogens nor allergenic, and poorly oxidizable) to use them for generating both pharmaceutical and cosmetic formulations. Here, 1-Hexadecanol (EXA) as non-toxic, biocompatible, biodegradable long-chain fatty alcohol was chosen as a solid lipid, as its surfactant characteristic allows this excipient to behave as an emulsifier agent, avoiding the need for further surfactant addition usually required for SLMs preparation using melt dispersion method. In addition, EXA was shown a certain effectiveness in the inhibition of S. aureus growth.

[2] = Preliminary RSV solubility tests in buffer solutions; assay type: physicochemical; details: 32 °C, mean ± SE (n = 3)
Method: […] […] The suspension was kept in a thermostatic water bath (Heidolph MR3001K Hotplate Stirrer with Heidolph EXT3001 Temperature Probe, Heidolph Instruments, Schwabach, Germany) at 32 °C and stirred for 120 min. The samples were then centrifuged for 15 min at 15.000 rpm (mySPIN™ 12 Mini Centrifuge, Thermo Fisher Scientific, Waltham, MA, USA), to remove any precipitate. The supernatant was collected, diluted in methanol, and quantified by a UV-Vis spectrophotometer. The experiments were performed in triplicate.

[3] = set-up: method as in PMID 28659908; details: cited from earlier work
S. aureus = details: LB-agar as growth medium; cited from earlier work

## Oc1ccc(/C=C/c2cc(O)cc(O)c2)cc1 [RSV, 3,4′, 5-trihydroxy-trans-stilbene]
[1]; Gelucire 62/05, RSV 5% w/w
  RSV dissolution (appearance): Opalescent
[1]; Gelucire 62/05, RSV 10% w/w
  RSV dissolution (appearance): Opalescent
[1]; Gelucire 62/05, RSV 15% w/w
  RSV dissolution (appearance): Opalescent
[1]; Glyceryl Monostearate, RSV 5% w/w
  RSV dissolution (appearance): Opalescent
[1]; Glyceryl Monostearate, RSV 10% w/w
  RSV dissolution (appearance): Opalescent
[1]; Glyceryl Monostearate, RSV 15% w/w
  RSV dissolution (appearance): Opalescent
[1]; Isostearyl Isostearate, RSV 5% w/w
  RSV dissolution (appearance): Opalescent
[1]; Isostearyl Isostearate, RSV 10% w/w
  RSV dissolution (appearance): Opalescent
[1]; Isostearyl Isostearate, RSV 15% w/w
  RSV dissolution (appearance): Opalescent
[1]; Labrafil M-1944, RSV 5% w/w
  RSV dissolution (appearance): Opalescent
[1]; Labrafil M-1944, RSV 10% w/w
  RSV dissolution (appearance): Opalescent
[1]; Labrafil M-1944, RSV 15% w/w
  RSV dissolution (appearance): Opalescent
[1]; Labrafil M-2130, RSV 5% w/w
  RSV dissolution (appearance): Opalescent
[1]; Labrafil M-2130, RSV 10% w/w
  RSV dissolution (appearance): Opalescent
[1]; Labrafil M-2130, RSV 15% w/w
  RSV dissolution (appearance): Opalescent
[1]; Labrasol, RSV 5% w/w
  RSV dissolution (appearance): Clear
[1]; Labrasol, RSV 10% w/w
  RSV dissolution (appearance): Clear
[1]; Labrasol, RSV 15% w/w
  RSV dissolution (appearance): Slightly Opalescent
[1]; Soy Lecithin, RSV 5% w/w
  RSV dissolution (appearance): Opalescent
[1]; Soy Lecithin, RSV 10% w/w
  RSV dissolution (appearance): Opalescent
[1]; Soy Lecithin, RSV 15% w/w
  RSV dissolution (appearance): Opalescent
[1]; Tefose 1500, RSV 10% w/w
  RSV dissolution (appearance): Slightly Opalescent
[1]; Tefose 1500, RSV 15% w/w
  RSV dissolution (appearance): Opalescent
[1]; liquid lipid Labrasol
  amount of RSV solubilized by Labrasol: up to 10 % w/w
[2]; PBS buffer solution with BSA 5% w/v, pH 7.4, thermodynamic from solid, PBS + BSA 5%
  solubility at 120 min: 442 ± 35 µg/mL
[2]; PBS buffer solution with DMSO 10% v/v, pH 7.4, aqueous with cosolvent or surfactant or cyclodextrin, thermodynamic from solid, PBS + DMSO 10%
  solubility at 120 min: 194 ± 10 µg/mL
[2]; PBS buffer solution with α-CD 0.5% w/v, pH 7.4, aqueous with cosolvent or surfactant or cyclodextrin, thermodynamic from solid, PBS + α-CD 0.5%
  solubility at 120 min: 153 ± 8 µg/mL
[2]; PBS buffer solution with β-CD 2% w/v, pH 7.4, aqueous with cosolvent or surfactant or cyclodextrin, thermodynamic from solid, PBS + β-CD 2%
  solubility at 120 min: 886 ± 11 µg/mL
[2]; citrate buffer solution with β-CD 2% w/v, aqueous with cosolvent or surfactant or cyclodextrin, thermodynamic from solid, Citrate buffer (pH 6.2) + β-CD 2%
  solubility at 120 min: 803 ± 3 µg/mL
[3]
  partition coefficient (LogP): 3.09
S. aureus
  Minimal Inhibitory Concentration (MIC): 1000 µg/mL

From publication PMC7254386, “Antibacterial PEGylated Solid Lipid Microparticles for Cosmeceutical Purpose: Formulation, Characterization, and Efficacy Evaluation” (Materials, 2020)
